Reference: paper PMC12651578, “Ultrasound-Assisted Fibril Formation Enhances Complexation of Oat Globulin with Quercetin: Mechanism, Structure Evolution, Delivery Performance” (Foods, 2025)

Experiments:
[1] = Photostability of Que under 365 nm UV lamp; assay type: physicochemical; conditions: 1.32 mW/cm^2, 150 min
Method: The photostability of encapsulated Que was assessed using a 365 nm UV lamp with a light intensity of 1.32 mW/cm^2. Aliquots of 5 mL from each sample group were placed 10 cm away from the UV light source and exposed for various durations (0, 10, 30, 60, 90, 120, and 150 min). The retention of Que in each sample was then measured.

[2] = Thermal stability of Que at 85 °C; assay type: physicochemical
Method: The thermal stability of Que was evaluated following a previously described method with slight modifications. Briefly, 5 mL aliquots of free Que suspension (control), OG-Que complex solution, OGF-Que complex solution, and UOGF-Que complex solution were placed in a water bath at 85 °C under dark conditions in sealed containers. At predetermined time intervals (0, 10, 30, 60, 90, 120, and 150 min), samples were withdrawn, rapidly cooled to 25 °C, vortexed, and analyzed for Que retention.

[3] = In vitro simulated gastrointestinal digestion, bioaccessibility of Que; assay type: in vitro ADME; conditions: simulated gastric (2 h) and intestinal (2 h) digestion, 37 °C
Method: The release behavior and bioaccessibility of Que in the complex system were evaluated using an in vitro simulated digestion model with modifications based on previous studies. Briefly, sample solutions loaded with Que (protein concentration: 4 mg/mL) were mixed with equal volumes (10 mL) of simulated gastric fluid containing pepsin. The pH was adjusted to 2.0 using 6 M HCl, and the mixture was incubated at 37 °C with shaking at 100 rpm to simulate gastric digestion for 2 h. Afterward, the pH was adjusted to 7.0 to terminate gastric digestion. For intestinal digestion, 5 mL of the gastric digest was mixed with 5 mL of simulated intestinal fluid containing trypsin and bile salts, followed by incubation at 37 °C for another 2 h. The collected digestion products were centrifuged at 10,000× g for 30 min at 4 °C, and the supernatant was analyzed for Que content to determine the bioaccessibility: (8) Bioaccessibility of Que%=Csupernatant/Cdigesta×100% where Csupernatant denotes the Que content in the supernatant after digestion, and Cdigesta refers to the total Que content in the final digesta after simulated gastrointestinal digestion.

OGF [4] = target: T1, OGF; experiment: Intrinsic protein fluorescence quenching by quercetin (0-30 uM, 0.3 mg/mL protein, pH 3.2, inner filter corrected), double-logarithmic Stern-Volmer plot, 298 K.; assay type: binding; conditions: n = 3
T1 construct: amyloid-like fibrils made by acid-heat treatment without ultrasound, partly hydrolysed
Method: (§1) Intrinsic fluorescence spectroscopy was employed to investigate the interaction between OG and its fibrillar products with Que. The binding capacities of OG, OGF, and UOGF were evaluated at pH 3.2 with various concentrations of Que (0, 2.5, 5, 10, 15, 20, and 30 μM). The mixed samples were incubated at different temperatures of 24.85, 30.85, and 36.85 °C (298, 304, and 310 K) for 30 min. Then the intrinsic fluorescence spectra of each sample (0.3 mg/mL) were recorded using a Cary Eclipse fluorescence spectrophotometer (Agilent Technologies, Santa Clara, CA, USA) following to the previously described protocols. The instrument voltage was set to 650 V, with a slit width and scan rate of 5 nm and 1000 nm/min, respectively. Meanwhile, to correct for the inner filter effect, the following equation was applied as described by Ren et al.. (1) Fc=Fm×10^(Aex+Aem)/2 where Fc and Fm represent the corrected and measured fluorescence intensities, while Aex and Aem denote the absorbance at the excitation and emission wavelengths, respectively.
(§2) The fluorescence quenching mechanism of the complex system was further analyzed by fitting the obtained fluorescence intensity data using the Stern–Volmer equation: (2) F0/F=1+KSVQ=1+Kqτ0Q where F0 and F represent the fluorescence intensities of OG and its fibrils before and after the addition of the polyphenol quencher (Que), respectively; KSV is the Stern–Volmer quenching constant; Kq is the quenching rate constant; [Q] is the concentration of the quencher Que; and τ0 is the average lifetime of the fluorophore in the absence of the quencher.
(§3) Considering the static quenching effect between the OG protein/fibrils and the Que ligand, the binding mechanism was further analyzed using a double logarithmic Stern–Volmer equation: (9) lgF0−F/F=lgKa+nlgQ where the binding constant (Ka) and the number of binding sites (n) are key quantitative parameters reflecting the interaction between the bioactive molecule and the protein; the magnitude of Kₐ indicates the binding affinity between Que and the protein.

OG [5] = target: T2, OG; experiment: as above; assay type: binding; conditions: n = 3
T2 construct: native oat globulin isolate, unfibrillated, pH 3.2
Method: as §1, §2, §3

UOGF [6] = target: T3, UOGF; experiment: as above; assay type: binding; conditions: n = 3
T3 construct: amyloid-like fibrils, ultrasound pretreatment (pH 2, 9 W/mL, 20 min) then 90 °C for 18 h, partly hydrolysed
Method: as §1, §2, §3

OGF [7] = target: T1, OGF; experiment: Intrinsic protein fluorescence quenching by quercetin (0-30 uM, 0.3 mg/mL protein, pH 3.2, inner filter corrected), double-logarithmic Stern-Volmer plot, 304 K.; assay type: binding; conditions: n = 3
Method: as §1, §2, §3

OG [8] = target: T2, OG; experiment: as above; assay type: binding; conditions: n = 3
Method: as §1, §2, §3

UOGF [9] = target: T3, UOGF; experiment: as above; assay type: binding; conditions: n = 3
Method: as §1, §2, §3

OGF [10] = target: T1, OGF; experiment: Intrinsic protein fluorescence quenching by quercetin (0-30 uM, 0.3 mg/mL protein, pH 3.2, inner filter corrected), double-logarithmic Stern-Volmer plot, 310 K.; assay type: binding; conditions: n = 3
Method: as §1, §2, §3

OG [11] = target: T2, OG; experiment: as above; assay type: binding; conditions: n = 3
Method: as §1, §2, §3

UOGF [12] = target: T3, UOGF; experiment: as above; assay type: binding; conditions: n = 3
Method: as §1, §2, §3

| SMILES | retention rate of Que after UV exposure [1] | retention rate of Que after heating ([2]; 30 min) | retention rate of Que after heating ([2]; 150 min) | bioaccessibility of Que [3] | Ka (M^−1), 298 K (OGF [4]) | Ka (M^−1), 298 K (OG [5]) | Ka (M^−1), 298 K (UOGF [6]) | Ka (M^−1), 304 K (OGF [7]) | Ka (M^−1), 304 K (OG [8]) | Ka (M^−1), 304 K (UOGF [9]) | Ka (M^−1), 310 K (OGF [10]) | Ka (M^−1), 310 K (OG [11]) | Ka (M^−1), 310 K (UOGF [12]) |
| --- | --- | --- | --- | --- | --- | --- | --- | --- | --- | --- | --- | --- | --- |
| O=c1c(O)c(-c2ccc(O)c(O)c2)oc2cc(O)cc(O)c12 [Que, Quercetin] | 27.78% | 45.13% | 26.48% | 8.21% |  |  |  |  |  |  |  |  |  |
| O=c1c(O)c(-c2ccc(O)c(O)c2)oc2cc(O)cc(O)c12 [Que, quercetin] |  |  |  |  | 17140 M⁻¹ | 12850 M⁻¹ | 20910 M⁻¹ | 26060 M⁻¹ | 16330 M⁻¹ | 49870 M⁻¹ | 79670 M⁻¹ | 16470 M⁻¹ | 202600 M⁻¹ |
